Experimental data taken from ChEMBL document CHEMBL1821700, “SAR by interligand nuclear overhauser effects (ILOEs) based discovery of acylsulfonamide compounds active against Bcl-x(L) and Mcl-1” (J Med Chem, 2011).

Key:
Bcl-2-like protein 1 [1] = biological target: T1, Bcl-2-like protein 1 (Homo sapiens, UniProt Q07817); experiment: Binding affinity to Bcl-xL by 2D- NOESY analysis
Bcl-2-like protein 1 [2] = biological target: T1, Bcl-2-like protein 1; experiment: Displacement of FITC labeled Bak BH3 peptide from Bcl-xL after 10 mins by Fluorescence Polarization assay
[3] = biological target: Induced myeloid leukemia cell differentiation protein Mcl-1 (Homo sapiens, UniProt Q07820); experiment: Displacement of FITC labeled Bak BH3 peptide from Mcl-1 after 2 mins by Fluorescence Polarization assay
Sequence of Induced myeloid leukemia cell differentiation protein Mcl-1 (Q07820 whole entry): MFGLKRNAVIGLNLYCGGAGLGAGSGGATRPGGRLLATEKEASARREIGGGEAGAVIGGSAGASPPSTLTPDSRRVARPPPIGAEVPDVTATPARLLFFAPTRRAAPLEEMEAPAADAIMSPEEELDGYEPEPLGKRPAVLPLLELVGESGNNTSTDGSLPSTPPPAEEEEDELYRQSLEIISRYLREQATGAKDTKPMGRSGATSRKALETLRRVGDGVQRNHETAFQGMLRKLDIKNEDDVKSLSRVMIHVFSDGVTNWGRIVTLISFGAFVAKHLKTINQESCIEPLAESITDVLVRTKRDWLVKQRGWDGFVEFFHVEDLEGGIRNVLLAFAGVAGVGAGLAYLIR

T1 sequence (Q07817 whole entry): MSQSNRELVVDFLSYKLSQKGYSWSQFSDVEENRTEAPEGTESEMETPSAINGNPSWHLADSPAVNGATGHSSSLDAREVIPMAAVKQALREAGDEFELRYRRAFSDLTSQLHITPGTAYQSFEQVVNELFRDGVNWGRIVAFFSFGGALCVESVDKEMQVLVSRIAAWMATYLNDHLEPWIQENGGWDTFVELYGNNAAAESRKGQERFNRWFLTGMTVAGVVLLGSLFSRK

Row | SMILES | Kd (Bcl-2-like protein 1 [1]) [µM] | IC50 (Bcl-2-like protein 1 [2]) [µM] | IC50 [3] [µM]
1 | O=C(O)c1ccc(-c2ccc(F)cc2)cc1 | 300 |  | 
2 | O=C(O)c1ccccc1N1CCCCC1 | 378 |  | 
3 | O=C(NS(=O)(=O)c1ccc(COc2ccccc2)cc1)c1ccc(-c2ccccc2)cc1 |  | 16.8 | 43.2
4 | O=C(NS(=O)(=O)c1ccc(COc2ccccc2)cc1)c1cccc(-c2ccccc2)c1 |  | 15.1 | 25.4
5 | O=C(NS(=O)(=O)c1ccc(COc2ccccc2)cc1)c1ccccc1-c1ccccc1 |  | 42.7 | > 1000
6 | O=C(NS(=O)(=O)c1ccc(COc2ccccc2)cc1)c1ccc(-c2ccc(F)cc2)cc1 |  | 9.37 | 16.6
7 | O=C(NS(=O)(=O)c1ccc(COc2ccccc2)cc1)c1ccc(-c2ccc(Cl)cc2)cc1 |  | 3.79 | 7.26
8 | O=C(NS(=O)(=O)c1ccc(COc2ccccc2)cc1)c1ccc(-c2cc(Cl)cc(Cl)c2)cc1 |  | 4.14 | 2.51
9 | O=C(NS(=O)(=O)c1ccc(Oc2ccccc2)cc1)c1ccc(-c2ccccc2)cc1 |  | 28 | 3.56
10 | O=C(NS(=O)(=O)c1ccc(Oc2ccccc2)cc1)c1ccc(-c2ccc(F)cc2)cc1 |  | 33.5 | 17.8
11 | O=C(NS(=O)(=O)c1ccc(Oc2ccccc2)cc1)c1ccc(-c2cc(Cl)cc(Cl)c2)cc1 |  | 49.5 | 5.08
12 | O=C(NS(=O)(=O)c1ccc(OCc2ccccc2)cc1)c1ccc(-c2cc(Cl)cc(Cl)c2)cc1 |  | 3.19 | 6.3
13 | O=C(NS(=O)(=O)c1ccc(-c2ccccc2)cc1)c1ccc(Oc2ccccc2)cc1 |  | 161 | > 1000
14 | O=C(NS(=O)(=O)c1ccc(COc2ccccc2)cc1)c1cccc(-c2ccc(C(F)(F)F)cc2)c1 |  | 6.2 | 8.37
15 | O=C(NS(=O)(=O)c1ccc(COc2ccccc2)cc1)c1cccc(-c2cc(Cl)cc(Cl)c2)c1 |  | 0.31 | 7.57
16 | O=C(NS(=O)(=O)c1ccc(OCc2ccccc2)cc1)c1cccc(-c2cc(Cl)cc(Cl)c2)c1 |  | 0.18 | 0.22
17 | O=C(NS(=O)(=O)c1ccc(COc2ccccc2)cc1)c1cccc(-c2ccc(Cl)cc2Cl)c1 |  | 9.98 | 8.69
18 | O=C(NS(=O)(=O)c1ccc(COc2ccccc2)cc1)c1cccc(-c2ccc(Cl)c(Cl)c2)c1 |  | 7.15 | 5.76
19 | O=C(NS(=O)(=O)c1ccc(Oc2ccccc2)cc1)c1cccc(-c2ccccc2)c1 |  | 28.5 | 3.24

Row | SMILES | Kd (Bcl-2-like protein 1 [1]) [µM] | IC50 (Bcl-2-like protein 1 [2]) [µM] | IC50 [3] [µM]
20 | O=C(NS(=O)(=O)c1ccc(Oc2ccccc2)cc1)c1cccc(-c2cc(Cl)cc(Cl)c2)c1 |  | 2.53 | 7.11
21 | O=C(NS(=O)(=O)c1ccc(Oc2ccccc2)nc1)c1cccc(-c2cc(Cl)cc(Cl)c2)c1 |  | 2.31 | 9.78
22 | O=C(NS(=O)(=O)c1ccc(Oc2ccccc2)cc1)c1cccc(-c2cccc(Cl)c2Cl)c1 |  | 4.08 | 4.76
23 | O=C(NS(=O)(=O)c1ccc(Oc2ccccc2)cc1)c1cccc(-c2ccc(Cl)cc2Cl)c1 |  | 1.94 | 3.72
24 | O=C(NS(=O)(=O)c1ccc(Oc2ccccc2)cc1)c1cccc(-c2ccc(Cl)c(Cl)c2)c1 |  | 1.97 | 2.48
25 | COc1ccc(-c2cccc(C(=O)NS(=O)(=O)c3ccc(Oc4ccccc4)cc3)c2)cc1OC |  | > 1000 | 42.6
26 | O=C(NS(=O)(=O)c1ccc2ccccc2c1)c1cccc(-c2ccc(Cl)c(Cl)c2)c1 |  | 10.9 | 13.2
27 | CCCCOc1ccc(S(=O)(=O)NC(=O)c2cccc(-c3ccc(Cl)c(Cl)c3)c2)cc1 |  | 12.1 | 38.8
28 | O=C(NS(=O)(=O)c1ccc(OCc2ccccc2)cc1)c1cccc(-c2ccc(Cl)c(Cl)c2)c1 |  | 2.96 | 4.88
29 | O=C(NS(=O)(=O)c1ccc(OCC2CCCCC2)cc1)c1cccc(-c2ccc(Cl)c(Cl)c2)c1 |  | 0.16 | 0.62
30 | COc1ccccc1Oc1ccc(S(=O)(=O)NC(=O)c2cccc(-c3ccc(Cl)c(Cl)c3)c2)cc1 |  | 3.76 | 6.63
31 | N#Cc1c(Cl)cccc1Oc1ccc(S(=O)(=O)NC(=O)c2cccc(-c3ccc(Cl)c(Cl)c3)c2)cc1 |  | 2.7 | 3.18
32 | O=C(NS(=O)(=O)c1ccc(Oc2c(Cl)cccc2[N+](=O)[O-])cc1)c1cccc(-c2ccc(Cl)c(Cl)c2)c1 |  | 2 | 3.04
33 | O=C(NS(=O)(=O)c1ccc(Oc2cc(C(F)(F)F)cc(C(F)(F)F)c2)cc1)c1cccc(-c2ccc(Cl)c(Cl)c2)c1 |  | 2.94 | 3.04
34 | O=C(NS(=O)(=O)c1ccc(Oc2ccc(F)cc2)cc1)c1cccc(-c2ccc(Cl)c(Cl)c2)c1 |  | 2.87 | 3.91
35 | CCOc1ccc(Oc2ccc(S(=O)(=O)NC(=O)c3cccc(-c4ccc(Cl)c(Cl)c4)c3)cc2)cc1 |  | 0.086 | 0.14
36 | Nc1ncccc1OCc1ccccc1 | 692 |  | 
37 | Oc1cccc2c1CCCC2 | 4300 |  | 
